Source: patent US20080138850A1, “Skin Model” (SYMRISE GmbH & Co. KG, priority 2006, published 2008)

Assays:
Assay type in all cases: cell-based
[1] = tested on: full thickness human skin; experiment: Skin pigmentation in full thickness human skin organ culture; settings: beta arbutin 1% vs vehicle, day 6 of organ culture
Source text: FIG. 2(A) depicts human skin treated with beta arbutin 1% vs negative control (“vehicle”) at day 6 of organ culture.
Beta arbutin (hydroquinone glucoside), a recognized inhibitor of tyrosinase, has been selected as positive control for skin lightening.

pig skin samples = experiment: Skin pigmentation (melanin, Fontana-Masson staining) in pig skin organ culture; settings: Pietrain dorsal pig skin, 1% w/v topical, re-applied daily
Method: For this experiment, full thickness pig skin has been excised from dorsal part of a pig with 30±5 follicles/cm^2 (age: 8 weeks; weight: 24 kg). The skin samples have been cut under sterile condition in smaller pieces (surface: 4×4; thickness: 3 mm) and placed in a 6 wells plate (two samples per well) over a sterilized cotton immerse in 5 ml of culture medium, incubated at 37° C., 5% CO2, 100% humidity, as described above. Culture medium has been renewed every other day.
Thus, 10 μl of beta arbutin (1% w/v in culture medium) per sample has been added topically and re-applied daily. As negative control, culture medium has been applied topically by following the same experimental procedures as for beta-arbutin. Six pig skin samples have been used for each treatment (i.e. beta arbutin and culture medium).
The pig skin samples were incubated for either 2 or 6 days respectively.
Following organ culture procedure, skin samples have been embedded in cryomedium by using liquid nitrogen. […]
The amount of melanin present in each slide has been evaluated by measuring the areas covered by the black spots, by using the software ImageJ (National Institute of Health, US). […]
The data from all samples of the same experimental group have been pooled and the means ±SEM calculated. The statistical significance (P-value) was been determined by Mann-Whitney U test for nonparametric samples. […]

[2] = tested on: hair follicle matrix cells in pig skin organ culture; experiment: Hair follicle matrix cell proliferation (Ki67/DAPI double staining) in pig skin organ culture; settings: 25 ng/ml in culture medium
Method: For this experiment, full thickness skin samples had been excised from dorsal part of a pig with 30±5 follicles/cm^2 (age: 8 weeks; weight: 22 kg).
As a consequence, changes in the proliferation rate of hair follicles matrix cells have been investigated in pig skin organ culture following incubation with recognized modulators of hair growth.
Two different experimental procedures have been investigated:
I. In the first experiment, the pig skin samples had been incubated with the potential modulators from day 0 to day 6.
II. In the second experiment, the skin had been kept in culture until day 14. Then, the skin has been incubated with the potential modulators up day 21.
Following the organ culture procedure, skin samples had been embedded in cryomedium by using liquid nitrogen. Embedded samples had been cut in thin slides (thickness: 7 μm) and were then immunolabelled by performing Ki67/DAPI double staining to detect proliferative cells localized on the bulb region. In particular, while Ki67 labels proliferating cells, DAPI stains all cell nuclei. Quantitative analysis has been performed by using a custom modified version of the software ImageJ (National Institute of Health, US). The data from all samples of the same experimental group have been pooled and the means ±SEM calculated. The statistical significance (P-value) has been determined by Mann-Whitney U test for nonparametric samples. […]

Row | Molecule | inhibition of skin pigmentation [1] [%] | decrease of pigmentation in comparison to the negative control (pig skin samples; after 2 days) [%] | decrease of pigmentation in comparison to the negative control (pig skin samples; after 6 days) [%] | inhibition of hair matrix cell proliferation versus untreated control ([2]; incubated day 0 to day 6, read at day 6) [%] | inhibition of hair matrix cell proliferation versus untreated control ([2]; incubated day 14 to day 21, read at day 21) [%]
1 | OC[C@H]1O[C@@H](Oc2ccc(O)cc2)[C@H](O)[C@@H](O)[C@@H]1O [beta arbutin, hydroquinone glucoside] | 31 | 52.4 | 44.2 | – | –
2 | transforming growth factor beta 2 (protein, UniProt P61812 303-414, looked up) Transforming growth factor …: ALDAAYCFRNVQDNCCLRPLYIDFKRDLGWKWIHEPKGYNANFCAGACPYLWSSDTQHSRVLSLYNTINPEASASPCCVSQDLEPLTILYYIGKTPKIEQLSNMIVKSCKCS | – | – | – | 24.8 | 36.1
